The text below walks through data of US20140309210A1, “INDAZOLE COMPOUNDS, COMPOSITIONS AND METHODS OF USE THEREOF” (Genentech, Inc., priority 2011, published 2014).

In this assay the target is T1, purified ITK (Invitrogen PV3875) (Homo sapiens, UniProt Q08881).
T1 construct: purchased Invitrogen PV3875
T1 sequence (Q08881 1-620): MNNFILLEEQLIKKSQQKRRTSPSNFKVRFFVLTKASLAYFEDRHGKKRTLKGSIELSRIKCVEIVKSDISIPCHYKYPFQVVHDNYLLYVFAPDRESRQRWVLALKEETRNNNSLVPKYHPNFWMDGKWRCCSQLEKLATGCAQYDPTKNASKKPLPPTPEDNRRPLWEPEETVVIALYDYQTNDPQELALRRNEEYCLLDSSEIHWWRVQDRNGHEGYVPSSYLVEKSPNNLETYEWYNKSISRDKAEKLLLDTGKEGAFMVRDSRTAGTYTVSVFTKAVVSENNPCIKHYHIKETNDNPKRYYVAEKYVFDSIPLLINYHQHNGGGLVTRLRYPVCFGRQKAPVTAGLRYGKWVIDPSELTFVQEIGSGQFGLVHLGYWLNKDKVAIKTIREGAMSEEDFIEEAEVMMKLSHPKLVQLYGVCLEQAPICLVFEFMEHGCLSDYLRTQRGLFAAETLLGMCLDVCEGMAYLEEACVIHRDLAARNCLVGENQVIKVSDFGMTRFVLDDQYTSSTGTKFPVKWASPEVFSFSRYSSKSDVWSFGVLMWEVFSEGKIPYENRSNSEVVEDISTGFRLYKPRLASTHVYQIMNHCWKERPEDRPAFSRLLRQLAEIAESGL
The assay is described as follows: ITK peptide phosphorylation assay (Caliper LabChip or LCMS). Type of assay: biochemical. The following applies: Table 1, Examples 141-279. Summed up:
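Purified human ITK peptide phosphorylation, quenched with EDTA (50 mM final) for Caliper LabChip separation or TCA (5% v/v final) for UPLC-MS/MS MRM quantification. Ki derived via Morrison tight-binding equation, corrected for competitive inhibition using ATP concentration relative to Km,app.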
For orientation: Ki means a measure of affinity in units of concentration, obtained from inhibition or displacement. High values mean a looser hold on the target, low ones a stronger hold on the target. In turn, `COc1cncc(-c2ccc3c(C(=O)Nc4cnn(C(CN5CCN(C)CC5)c5cccnc5)c4)n[nH]c3c2)c1` (stereo not drawn) [Example 232, 6-(5-methoxy-3-pyridyl)-N-[1-[2-(4-methylpiperazin-1-yl)-1-(3-pyridyl)ethyl]py-razol-4-yl]-1H-indazole-3-carboxamide] showed a Ki of 31.4 nM. In other words, the double-digit nanomolar range. Turning to `COc1cncc(-c2ccc3c(C(=O)Nc4cnn(C(CN(C)C)c5cccnc5)c4)n[nH]c3c2)c1` (stereo not drawn) [Example 233, N-[1-[2-(dimethylamino)-1-(3-pyridyl)ethyl]py-razol-4-yl]-6-(5-methoxy-3-pyridyl)-1H-indazole-3-carboxamide], the affinity corresponds to a Ki of 51 nM. Molecule `COc1cncc(-c2ccc3c(C(=O)Nc4cnn(C(CN5CCN(C)CC5)c5cccnc5)c4)n[nH]c3c2)c1` (stereo not drawn) [Example 234, 6-(5-methoxy-3-pyridyl)-N-[1-[2-(4-methylpiperazin-1-yl)-1-(3-pyridyl)ethyl]py-razol-4-yl]-1H-indazole-3-carboxamide] had a Ki of 5.38 nM. Molecule `O=C(Nc1cnn(CC2CCOC2)c1)c1n[nH]c2cc(-c3cn[nH]c3)ccc12` (stereo not drawn) [Example 235, 6-(1H-pyrazol-4-yl)-N-[1-(tetrahydrofuran-3-ylmethyl)pyrazol-4-yl]-1H-indazole-3-carboxamide] came in with a Ki of 4.64 nM. `O=C(Nc1cnn(CC2CCC2)c1)c1n[nH]c2cc(-c3cn[nH]c3)ccc12` [Example 236, N-[1-(cyclobutylmeth-yl)pyrazol-4-yl]-6-(1H-pyrazol-4-yl)-1H-indazole-3-carboxamide]: affinity was put at a Ki of 6.09 nM. The Ki values of the last two molecules are within 1.5-fold of each other. Take `O=C(Nc1cnn(CC2COCCO2)c1)c1n[nH]c2cc(-c3cn[nH]c3)ccc12` (stereo not drawn) [Example 237]: the affinity, expressed as Ki, was 3.7 nM. On to `CCC(CC)Cn1cc(NC(=O)c2n[nH]c3cc(-c4cn[nH]c4)ccc23)cn1` [Example 238, N-[1-(2-ethylbutyl)pyrazol-4-yl]-6-(1H-pyrazol-4-yl)-1H-indazole-3-carboxamide], for which the Ki worked out at 2.79 nM. In turn, `O=C(Nc1cnn(CC2CCCO2)c1)c1n[nH]c2cc(-c3cn[nH]c3)ccc12` (stereo not drawn) [Example 239, 6-(1H-pyrazol-4-yl)-N-[1-(tetrahydrofuran-2-ylmethyl)pyrazol-4-yl]-1H-indazole-3-carboxamide] came in with an inhibition constant (Ki) of 6.58 nM. As for `O=C(Nc1cnn(CC2CC2)c1)c1n[nH]c2cc(-c3cn[nH]c3)ccc12` [Example 240, N-[1-(cyclopropylmeth-yl)pyrazol-4-yl]-6-(1H-pyrazol-4-yl)-1H-indazole-3-carboxamide], the figure is 5.33 nM.

`O=C(Nc1cnn(CC2CCCOC2)c1)c1n[nH]c2cc(-c3cn[nH]c3)ccc12` (stereo not drawn) [Example 241, 6-(1H-pyrazol-4-yl)-N-[1-(tetrahydropyran-3-ylmethyl)pyrazol-4-yl]-1H-indazole-3-carboxamide] gave a Ki of 2.79 nM. Against the preceding molecule, the Ki is about 1.9-fold lower. The value for `O=C(Nc1cnn(CC2CCOCC2)c1)c1n[nH]c2cc(-c3cn[nH]c3)ccc12` [Example 242] was 2.47 nM; that for `O=C(Nc1cnn(CC2CCCCC2)c1)c1n[nH]c2cc(-c3cn[nH]c3)ccc12` [Example 243, N-[1-(cyclohexylmeth-yl)pyrazol-4-yl]-6-(1H-pyrazol-4-yl)-1H-indazole-3-carboxamide] was 2.43 nM; that for `O=C(Nc1cnn(Cc2ccccc2)c1)c1n[nH]c2cc(-c3cn[nH]c3)cnc12` [Example 245, N-(1-benzylpyrazol-4-yl)-6-(1H-pyrazol-4-yl)-1H-pyrazolo[4,3-b]pyridine-3-carboxamide] was 18.9 nM. Take `Cc1cccc(C(CCN(C)C)n2cc(NC(=O)c3n[nH]c4cc(-c5cn[nH]c5)ccc34)cn2)c1` (stereo not drawn) [Example 246, N-[1-[3-(dimethylamino)-1-(m-tolyl)propyl]py-razol-4-yl]-6-(1H-pyrazol-4-yl)-1H-indazole-3-carboxamide]: the Ki came to 0.0734 nM. As for `CN(C)CCC(c1cccc(Cl)c1)n1cc(NC(=O)c2n[nH]c3cc(-c4cn[nH]c4)ccc23)cn1` (stereo not drawn) [Example 247, N-[1-[1-(3-chlorophenyl)-3-(dimethylami-no)propyl]pyrazol-4-yl]-6-(1H-pyrazol-4-yl)-1H-indazole-3-carboxamide], the figure is 0.127 nM.
